Starred links: 1 amine or outer side, 2 acyl side, 3 side chain; linkers in the order of their positions; H or OH if unused. Positions of bridges follow the written chain, without caps; N, C: chain ends. Residues, ends and D or L forms follow the SMILES beside them. *: point of attachment. C20 diacid = O=C(O)CCCCCCCCCCCCCCCCCCC(=O)*; γGlu = O=C(O)[C@H](CCC(=O)[*:2])N[*:1]
Columns and labels:
[1] = Assay (III) ThT fibrillation assay for physical stability; format: physicochemical; conditions: for Th T pH 4.0 lag time (h): 37° C., orbital shaking 960 rpm; for ThT pH 4.0 lag time: Table 9
In short: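 Freshly prepared samples, pH adjusted with NaOH and HClO4 or HCl, received ThT at 1 μM final and were incubated at 37° C with orbital shaking at 960 rpm. Fluorescence (ex 444 nm, em 485 nm) was read every 20 minutes; […], with polypeptide concentration by reverse HPLC before and after.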

[2] = Assay (I) efficacy testing on appetite (food intake), ad libitum fed rat model; format: in vivo, Sprague Dawley (SD) rats; conditions: 3 nmol/kg
In short: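 Single ip, po or sc dosing (0.01-3 mg/kg, by body weight) at the start of the dark phase, in individually housed Sprague Dawley rats of 200-250 g with free food and water. Intake was logged per rat each hour to 7 h, then at 24 h (occasionally 48 h), against a vehicle group; outliers removed by Grubbs test.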

| SMILES | Th T pH 4.0 lag time (h) [1] [h] | ThT pH 4.0 lag time [1] [hr] | Food intake reduction 0-24 h 3 nmol/kg (%) [2] [%] | Food intake reduction 24-48 h 3 nmol/kg (%) [2] [%] |
| --- | --- | --- | --- | --- |
| CC[C@H](C)[C@H](NC(=O)[C@@H]1CCCN1C(=O)CNC(=O)[C@H](Cc1ccccc1)NC(=O)[C@H](CC(N)=O)NC(=O)[C@H](CC(N)=O)NC(=O)[C@H](CO)NC(=O)[C@H](CO)NC(=O)[C@H](Cc1c[nH]cn1)NC(=O)[C@H](Cc1c[nH]cn1)NC(=O)[C@H](CC(C)C)NC(=O)[C@H](Cc1ccccc1)NC(=O)[C@H](CCC(=O)O)NC(=O)[C@H](C)NC(=O)[C@H](CC(C)C)NC(=O)[C@H](CCCNC(=N)N)NC(=O)[C@H](CCC(N)=O)NC(=O)[C@@H](NC(=O)[C@H](C)NC(=O)[C@@H]1CSSC[C@H](NC(=O)[C@H](CCCCN)NC(=O)CC[C@H](NC(=O)CCCCCCCCCCCCCCCCCCC(=O)O)C(=O)O)C(=O)N[C@@H](CC(N)=O)C(=O)N[C@@H]([C@@H](C)O)C(=O)N[C@@H](C)C(=O)N[C@@H]([C@@H](C)O)C(=O)N1)[C@@H](C)O)C(=O)N[C@@H](CC(C)C)C(=O)N1CCC[C@H]1C(=O)N1CCC[C@H]1C(=O)N[C@H](C(=O)N[C@@H](CC(N)=O)C(=O)N[C@H](C(=O)NCC(=O)N[C@@H](CO)C(=O)N[C@@H](CC(N)=O)C(=O)N[C@H](C(=O)N1CCC[C@H]1C(N)=O)[C@@H](C)O)C(C)C)[C@@H](C)O [Example 52, N-alpha-[(S)-4-Carboxy-4-(19-carboxynonadecanoylamino)butyryl]-[Glu14, His17, Pro37]-pramlintide] ({C20 diacid-γGlu}-KCNTATCATQRLAEFLHHSSNNFGPILPPTNVGSNTP-NH2; disulfide 2-7) | >45 | >45 | 62 | 74 |
| CC[C@H](C)[C@H](NC(=O)[C@@H]1CCCN1C(=O)CNC(=O)[C@H](Cc1ccccc1)NC(=O)[C@H](CC(N)=O)NC(=O)[C@H](CC(N)=O)NC(=O)[C@H](CO)NC(=O)[C@H](CO)NC(=O)[C@H](Cc1c[nH]cn1)NC(=O)[C@H](CCCNC(=N)N)NC(=O)[C@H](CC(C)C)NC(=O)[C@H](Cc1ccccc1)NC(=O)[C@H](CCC(=O)O)NC(=O)[C@H](C)NC(=O)[C@H](CC(C)C)NC(=O)[C@H](CCCNC(=N)N)NC(=O)[C@H](CCC(N)=O)NC(=O)[C@@H](NC(=O)[C@H](C)NC(=O)[C@@H]1CSSC[C@H](NC(=O)[C@H](CCCCN)NC(=O)CC[C@H](NC(=O)CCCCCCCCCCCCCCCCCCC(=O)O)C(=O)O)C(=O)N[C@@H](CC(N)=O)C(=O)N[C@@H]([C@@H](C)O)C(=O)N[C@@H](C)C(=O)N[C@@H]([C@@H](C)O)C(=O)N1)[C@@H](C)O)C(=O)N[C@@H](CC(C)C)C(=O)N1CCC[C@H]1C(=O)N1CCC[C@H]1C(=O)N[C@H](C(=O)N[C@@H](CC(N)=O)C(=O)N[C@H](C(=O)NCC(=O)N[C@@H](CO)C(=O)N[C@@H](CC(N)=O)C(=O)N[C@H](C(=O)N1CCC[C@H]1C(N)=O)[C@@H](C)O)C(C)C)[C@@H](C)O [Example 53, N-alpha-[(S)-4-Carboxy-4-(19-carboxynonadecanoylamino)butyryl]-[Glu14, Arg17, Pro37]-pramlintide] | >45 | >45 | 40 | 28 |
| CC[C@H](C)[C@H](NC(=O)[C@@H]1CCCN1C(=O)CNC(=O)[C@H](Cc1ccccc1)NC(=O)[C@H](CC(N)=O)NC(=O)[C@H](CC(N)=O)NC(=O)[C@H](CO)NC(=O)[C@H](CO)NC(=O)[C@H](Cc1c[nH]cn1)NC(=O)[C@H](CCCNC(=N)N)NC(=O)[C@H](CC(C)C)NC(=O)[C@H](Cc1ccccc1)NC(=O)[C@H](CCC(=O)O)NC(=O)[C@H](C)NC(=O)[C@H](CC(C)C)NC(=O)[C@H](CCCNC(=N)N)NC(=O)[C@H](CCC(N)=O)NC(=O)[C@@H](NC(=O)[C@H](C)NC(=O)[C@@H]1CSSC[C@H](NC(=O)[C@H](Cc2c[nH]cn2)NC(=O)CNC(=O)CC[C@H](NC(=O)CCCCCCCCCCCCCCCCCCC(=O)O)C(=O)O)C(=O)N[C@@H](CC(N)=O)C(=O)N[C@@H]([C@@H](C)O)C(=O)N[C@@H](C)C(=O)N[C@@H]([C@@H](C)O)C(=O)N1)[C@@H](C)O)C(=O)N[C@@H](CC(C)C)C(=O)N1CCC[C@H]1C(=O)N1CCC[C@H]1C(=O)N[C@H](C(=O)N[C@@H](CC(N)=O)C(=O)N[C@H](C(=O)NCC(=O)N[C@@H](CO)C(=O)N[C@@H](CC(N)=O)C(=O)N[C@H](C(=O)N1CCC[C@H]1C(N)=O)[C@@H](C)O)C(C)C)[C@@H](C)O [Example 89, N-alpha-[(S)-4-Carboxy-4-(19-carboxynonadecanoylamino)butyryl]-Gly-[His1, Glu14, Arg17, Pro37]-pramlintide] ({C20 diacid-γGlu}-GHCNTATCATQRLAEFLRHSSNNFGPILPPTNVGSNTP-NH2; disulfide 3-8) | >45 | >45 | 42 | 23 |
| CC[C@H](C)[C@H](NC(=O)[C@@H]1CCCN1C(=O)CNC(=O)[C@H](Cc1ccccc1)NC(=O)[C@H](CC(N)=O)NC(=O)[C@H](CC(N)=O)NC(=O)[C@H](CO)NC(=O)[C@H](CO)NC(=O)[C@H](Cc1c[nH]cn1)NC(=O)[C@H](Cc1c[nH]cn1)NC(=O)[C@H](CC(C)C)NC(=O)[C@H](Cc1ccccc1)NC(=O)[C@H](CCC(=O)O)NC(=O)[C@H](C)NC(=O)[C@H](CC(C)C)NC(=O)[C@H](CCCNC(=N)N)NC(=O)[C@H](CCC(N)=O)NC(=O)[C@@H](NC(=O)[C@H](C)NC(=O)[C@@H]1CSSC[C@H](NC(=O)[C@H](CCCNC(=N)N)NC(=O)CC[C@H](NC(=O)CCCCCCCCCCCCCCCCCCC(=O)O)C(=O)O)C(=O)N[C@@H](CC(N)=O)C(=O)N[C@@H]([C@@H](C)O)C(=O)N[C@@H](C)C(=O)N[C@@H]([C@@H](C)O)C(=O)N1)[C@@H](C)O)C(=O)N[C@@H](CC(C)C)C(=O)N1CCC[C@H]1C(=O)N1CCC[C@H]1C(=O)N[C@H](C(=O)N[C@@H](CC(N)=O)C(=O)N[C@H](C(=O)NCC(=O)N[C@@H](CO)C(=O)N[C@@H](CC(N)=O)C(=O)N[C@H](C(=O)N1CCC[C@H]1C(N)=O)[C@@H](C)O)C(C)C)[C@@H](C)O [Example 96, N-alpha-[(S)-4-Carboxy-4-(19-carboxynonadecanoylamino)butyryl]-[Arg1, Glu14, His17, Pro37]-pramlintide] ({C20 diacid-γGlu}-RCNTATCATQRLAEFLHHSSNNFGPILPPTNVGSNTP-NH2; disulfide 2-7) | >45 | >45 | 69 | 89 |
| CC[C@H](C)[C@H](NC(=O)[C@@H]1CCCN1C(=O)CNC(=O)[C@H](Cc1ccccc1)NC(=O)[C@H](CCC(N)=O)NC(=O)[C@H](CCC(N)=O)NC(=O)[C@H](CO)NC(=O)[C@H](CO)NC(=O)[C@H](Cc1c[nH]cn1)NC(=O)[C@H](CCCNC(=N)N)NC(=O)[C@H](CC(C)C)NC(=O)[C@H](Cc1ccccc1)NC(=O)[C@H](CCC(=O)O)NC(=O)[C@H](C)NC(=O)[C@H](CC(C)C)NC(=O)[C@H](CCCNC(=N)N)NC(=O)[C@H](CCC(N)=O)NC(=O)[C@@H](NC(=O)[C@H](C)NC(=O)[C@@H]1CSSC[C@H](NC(=O)[C@H](CCC(=O)O)NC(=O)[C@H](CCCNC(=N)N)NC(=O)[C@H](CCC(=O)O)NC(=O)CC[C@H](NC(=O)CCCCCCCCCCCCCCCCCCC(=O)O)C(=O)O)C(=O)N[C@@H](CC(N)=O)C(=O)N[C@@H]([C@@H](C)O)C(=O)N[C@@H](C)C(=O)N[C@@H]([C@@H](C)O)C(=O)N1)[C@@H](C)O)C(=O)N[C@@H](CC(C)C)C(=O)N1CCC[C@H]1C(=O)N1CCC[C@H]1C(=O)N[C@H](C(=O)N[C@@H](CCC(N)=O)C(=O)N[C@H](C(=O)NCC(=O)N[C@@H](CO)C(=O)N[C@@H](CCC(N)=O)C(=O)N[C@H](C(=O)N1CCC[C@H]1C(N)=O)[C@@H](C)O)C(C)C)[C@@H](C)O [Example 164, N-alpha-[(S)-4-Carboxy-4-(19-carboxynonadecanoylamino)butyryl]-Glu-Arg-[Glu1, Glu14, Arg17, Gln21, Gln22, Gln31, Gln35, Pro37]-pramlintide] ({C20 diacid-γGlu}-ERECNTATCATQRLAEFLRHSSQQFGPILPPTQVGSQTP-NH2; disulfide 4-9 (inferred); C-terminus assumed) | >45 | >45 | – | – |
| CC[C@H](C)[C@H](NC(=O)[C@@H]1CCCN1C(=O)CNC(=O)[C@H](Cc1ccccc1)NC(=O)[C@H](CO)NC(=O)[C@H](CO)NC(=O)[C@H](CO)NC(=O)[C@H](CO)NC(=O)[C@H](CCCNC(=N)N)NC(=O)[C@@H](NC(=O)[C@H](CC(C)C)NC(=O)[C@H](Cc1ccccc1)NC(=O)[C@H](CCC(=O)O)NC(=O)[C@H](C)NC(=O)[C@H](CC(C)C)NC(=O)[C@H](CCCNC(=N)N)NC(=O)[C@H](CCC(N)=O)NC(=O)[C@@H](NC(=O)[C@H](C)NC(=O)[C@@H]1CSSC[C@H](NC(=O)[C@H](CCCCN)NC(=O)CC[C@H](NC(=O)CCCCCCCCCCCCCCCCCCC(=O)O)C(=O)O)C(=O)N[C@@H](CC(N)=O)C(=O)N[C@@H]([C@@H](C)O)C(=O)N[C@@H](C)C(=O)N[C@@H]([C@@H](C)O)C(=O)N1)[C@@H](C)O)C(C)C)C(=O)N[C@@H](CC(C)C)C(=O)N[C@@H](CO)C(=O)N[C@@H](CO)C(=O)N[C@H](C(=O)N[C@@H](CC(=O)O)C(=O)N[C@H](C(=O)NCC(=O)N[C@@H](CO)C(=O)N[C@@H](CC(=O)O)C(=O)N[C@H](C(=O)N1CCC[C@H]1C(N)=O)[C@@H](C)O)C(C)C)[C@@H](C)O [Example 170, N-alpha-[(S)-4-Carboxy-4-(19-carboxynonadecanoylamino)butyryl]-[Glu14, Arg18, Ser21, Ser22, Ser28, Ser29, Asp31, Asp35, Pro37]-pramlintide] ({C20 diacid-γGlu}-KCNTATCATQRLAEFLVRSSSSFGPILSSTDVGSDTP-NH2; disulfide 2-7 (inferred); C-terminus assumed) | >45 | >45 | – | – |

Source: patent US9029325B2, “Amylin analogues and pharmaceutical compositions thereof” (Novo Nordisk A/S, priority 2011, dated 2015)
